Source: US9504687B2, “Treating Bax(Δ)2-positive cancer with chemotherapies targeting caspase 8” (Mumetel, LLC, priority 2013, dated 2016)
Entries after “also recorded” stand apart in the source; their conditions may differ. Read-outs that look alike come from different tables or passages of the source. Where a SMILES comes first, the peptide text is derived from it. The star is where a group is joined. Cbz = O=C(OCc1ccccc1)*

Experiments:
[1] = test system: HCT116 clone #10; experiment: Cell death assay of clone #10 treated with 5-FU with Bid or caspase-9 inhibition; assay type: cell-based, human; conditions: clone #10 treated with 5-FU (500 μM); BI-6C9 10 μM; LEHD 50 μM
Method: FIG. 10. The Bid-dependent mitochondrial death pathway is not essential for the onset of chemodrug-induced apoptosis in BaxΔ2-positive cells. A, Immunoblotting analysis of cleaved Bid in HCT116 clone #10 and #28 cells treated with or without 5-FU (500 μM) or Adriamycin ([…]) as indicated. The intensities of truncated Bid bands were quantitated relevant to the actin control and are presented as arbitrary numbers. B, Cell death assay of HCT116 clone #10 cells treated with 5-FU (500 μM) in the presence of a Bid specific inhibitor (BI-6C9; 10 μM) or Bid siRNA. C, Cell death assay of clone #10 cells treated with 5-FU (500 μM) in the presence of a caspase-9 inhibitor (LEHD (SEQ ID NO: 7); 50 μM) or transfected with a caspase-9 dominant negative (D/N) mutant construct. D, Representative images of JC-1 staining. Carbonyl cyanide 4-(trifluoromethoxy) phenylhydrazone (FCCP; 100 μM) was used as a positive control. JC-1 monomer green fluorescence as observed by excitation with 488 nm and emission with 529 nm (top panel). JC-1 aggregate red fluorescence as observed by excitation at 546 nm and emission at 590 nm (bottom panel). […]
(§1) Caspase-8 is one of the initiator caspases in the extrinsic death receptor pathway. […] We next determined if the Bid-dependent mitochondrial death pathway was required for BaxΔ2 to promote apoptosis. […]

[2] = test system: HCT116 clone #10; experiment: Cell death assay with chemodrug in the presence of caspase inhibitors; assay type: cell-based, human; conditions: clone #10 treated with 5-FU (500 μM) or Adriamycin (4 μg/ml) 24 h; inhibitors 50 μM each
Method: (§2) FIG. 9. BaxΔ2 promotes apoptosis through activation of caspase-8. A, Cell death assay of HCT116 clone #10 and clone #28 cells treated with or without 5-FU (500 μM) or Adriamycin (Adr, 4 μg/ml) for 24 h in the presence of inhibitors (50 μM each) for caspase-3 (DEVD) SEQ ID NO: 4), caspase-8 (IETD) (SEQ ID NO: 5), caspase-1 (YVAD) (SEQ ID NO: 6), and caspase-9 (LEHD) (SEQ ID NO: 7) as indicated. ** P<0.01. inh., inhibitor. B, Caspase-3 assay of HCT116 clone #10 and #28 cells treated as described in (A). The activity of caspase-3 was measured using fluorogenic caspase-3 substrate DEVD-AFC (SEQ ID NO: 4) (50 μM) with a microplate spectrofluorometer. C, Immunoblotting analysis for the detection of cleaved casapase-8 in the chemodrug treated clone #10 and #28 cells with an anti-cleaved caspase-8 antibody.
(§3) Bax typically targets the mitochondria upon activation and results in the activation of the caspase-9 and caspase-3 cascade for cell death. To determine the underlying mechanism by which BaxΔ2 promoted cell death, HCT116 clones #10 and #28 were treated with Adriamycin or 5-FU in the presence of different caspase inhibitors. […] The caspase-3 activity was confirmed by the caspase-3 fluorometric assay (FIG. 9B). […]

[3] = test system: HCT116 isogenic subline clone #10 (BaxΔ2-positive); assay type: cell-based, human; conditions: Table 5 screening
Method: Colon cancer cell line HCT116 was obtained from American Type Culture Collection. The cell line was tested and authenticated by Genetica (Cincinnati. Ohio) before the experiments. Both HCT116 and Bax^−/− mouse embryonic fibroblasts (MEFs) cells were cultured in DMEM supplemented with 10% FBS. To isolate single cell population from HCT116 cells, cells were treated with 500 μM Indomethacin for 72 h to enrich Bax G7 population. Single-cell suspension was plated onto 96-well plates without Indomethacin. Single clones were recovered, expanded, and validated by both genomic sequencing and RT-PCR analysis.
However, the heterogeneity of different cell lines often adds complexity to data interpretation. […] For the initial screening, we selected a panel of different classes of commonly used chemotherapeutic drugs.

[4] = test system: HCT116-BP10 (BaxΔ2 positive) versus HCT116-BN28 (BaxΔ2 negative) sublines; experiment: Cell death assay of HCT116 sublines treated with chemotherapeutic drugs for 36 hours; assay type: cell-based, human; conditions: Adriamycin (40 ug/ml) or 5-FU (500 ug/ml), compared with BaxΔ2 negative subline
Method: FIG. 8. […] Adr, Adriamycin; Etop, Etoposide; 5-FU, 5-fluorouracil; Contr, control.
BaxΔ2 positive (HCT116-BP10) and negative (HCT116-BN28) sublines were treated with Adriamycin (40 ug/ml) or 5-FU (500 ug/ml) for 36 hours in a regular cell culture medium. […] Both Adriamycin and Etoposide are in the same category as topoisomerase inhibitors; and both 5-FU and Cytoxan are in the same class of alkaloid drugs.

[5] = test system: caspase-8; experiment: Immunoblotting for cleaved caspase-8 in chemodrug treated clone #10; assay type: cell-based, human; conditions: 5-FU (500 μM) or Adriamycin (4 μg/ml) 24 h
Method: as §2, §3

[6] = test system: Bid; experiment: Immunoblotting analysis of cleaved Bid in clone #10; assay type: cell-based, human; conditions: BaxΔ2-positive clone #10 cells
Method: FIG. 10. The Bid-dependent mitochondrial death pathway is not essential for the onset of chemodrug-induced apoptosis in BaxΔ2-positive cells. A, Immunoblotting analysis of cleaved Bid in HCT116 clone #10 and #28 cells treated with or without 5-FU (500 μM) or Adriamycin ([…]) as indicated. The intensities of truncated Bid bands were quantitated relevant to the actin control and are presented as arbitrary numbers. B, Cell death assay of HCT116 clone #10 cells treated with 5-FU (500 μM) in the presence of a Bid specific inhibitor (BI-6C9; 10 μM) or Bid siRNA. C, Cell death assay of clone #10 cells treated with 5-FU (500 μM) in the presence of a caspase-9 inhibitor (LEHD (SEQ ID NO: 7); 50 μM) or transfected with a caspase-9 dominant negative (D/N) mutant construct. D, Representative images of JC-1 staining. Carbonyl cyanide 4-(trifluoromethoxy) phenylhydrazone (FCCP; 100 μM) was used as a positive control. JC-1 monomer green fluorescence as observed by excitation with 488 nm and emission with 529 nm (top panel). JC-1 aggregate red fluorescence as observed by excitation at 546 nm and emission at 590 nm (bottom panel).
as §1

[7] = test system: prostate cancer 104-R cells (G7/G7); conditions: previously shown; cited from earlier work
[8] = test system: colon cancer LoVo cells (G7/G9); conditions: previously shown; cited from earlier work
[9] = test system: BaxΔ2 protein; experiment: Immunoblotting of BaxΔ2 protein after MG-132 treatment, clone #10; assay type: cell-based, human; conditions: clone #10 (HCT116-BP10); MG-132 10 μM for 8 h
Method: (§4) FIG. 7. Generation and characterization of the isogenic subline cells with the different Bax microsatellite status. A, Schematic diagram of generating the HCT116 sublines. Cells were treated with 500 μM Indomethacin for 72 h. A single cell suspension was plated into 96-well plates without Indomethacin. Bax microsatellite statuses (G8/G8, G8/G7, or G7/G7) of each sublines were determined by genomic sequencing as described in the methods. B, RT-PCR analysis of Bax alternative splicing and BaxΔ2 production. The cDNAs were generated from HCT116 clones #10 (G7/G7 genotype) and clone #28 (G8/G7 genotype) with a set of primers that cover Bax exon 1 through exon 6, or primers specific for BaxΔ2 as described in the methods. The PCR products of Baxα and BaxΔ2 plasmid DNA were used as controls. […] Total 1×10^4 cells were seeded onto 24-well plates and the cell numbers were counted every 24 h up to 96 h. […]
(§5) We then determined the expression of endogenous BaxΔ2 proteins in the HCT116 clones #10 and #28 subline cells using a specific anti-BaxΔ2 antibody. […] Of note, both clone #10 and clone #28 had no detectable parental Baxα proteins, as analyzed by immunoblotting using several anti-Baxα antibodies (FIG. 7C and data not shown).

[10] = test system: BaxΔ2 protein; experiment: Immunoblotting of BaxΔ2 protein after MG-132 treatment, clone #28; assay type: cell-based, human; conditions: clone #28 (HCT116-BN28); MG-132 10 μM for 8 h
Method: as §4, §5

Compound	Inhibition of chemodrug-induced apoptosis [2]	Sensitivity of BaxΔ2 positive clone #10 cells to treatment (cell death assay) [4]	Caspase-8 activation (cleaved caspase-8 fragments 43 kDa and 18 kDa) [5]	Bid degradation (cleaved Bid) [6]	other results
Bid siRNA: Bid siRNA (5′GGGCAAAAGC UUACAAAUAUU3′) (SEQ ID NO: 47) (GGGCAAAAGCUUACAAAUAUU; listed as RNA, chemistry not given here)	–	–	–	–	Effect on chemodrug-induced apoptosis [1]: did not significantly affect
Z-DEVD-FMK (N-Z, C-terminal fluoromethylketone) [caspase-3 inhibitor]	effectively inhibited	–	–	–	–
COc1cccc2c1C(=O)c1c(O)c3c(c(O)c1C2=O)C[C@@](O)(C(=O)CO)C[C@@H]3O[C@H]1C[C@H](N)[C@H](O)[C@H](C)O1 [Doxorubicin, doxorubicin]	–	more sensitive	activated	partially degraded	Sensitivity of BaxΔ2-positive clone #10 compared with BaxΔ2-negative clone #28 ([3]; listed as Adriamycin): more sensitive; also recorded: selectively sensitive; Sensitivity to treatment compared with cancer cells with wild type Bax [7]: more sensitive; Sensitivity to treatment compared with cancer cells with wild type Bax [8]: more sensitive
Z-IETD-FMK (N-Z, C-terminal fluoromethylketone) [caspase-8 inhibitor]	effectively inhibited	–	–	–	–
CC(C)C[C@@H](C=O)NC(=O)[C@H](CC(C)C)NC(=O)[C@H](CC(C)C)NC(=O)OCc1ccccc1 [MG-132] (Cbz-Leu-Leu-Leu-aldehyde)	–	–	–	–	Detection of BaxΔ2 proteins after treatment [9]: easily detected; Detection of BaxΔ2 proteins after treatment [10]: no detectable BaxΔ2 proteins
O=c1[nH]cc(F)c(=O)[nH]1 [5-FU, 5-Fluorouracil]	–	more sensitive	activated	partially degraded	Sensitivity of BaxΔ2-positive clone #10 compared with BaxΔ2-negative clone #28 [3]: highly sensitive; also recorded: selectively sensitive
